Laboratory results as given in patent US4738954A, “Novel N^6 -substituted-5'-oxidized adenosine analogs” (Warner-Lambert Company, priority 1985, dated 1988).

Assays:
[1] = tested on: locomotor activity; assay: Activity and Screen Test done orally in rats: locomotor activity; format: in vivo
Procedure: Immediately following the screen test, the final phase of testing is initiated by placing each group of three mice in one actophotometer (Life Sciences, 22, 1067-1076, 1978). The actophotometer consists of a cylindrical chamber whose center is occupied by another cylinder which contains the illumination for six photocells located on the perimeter of the chamber. Six light-beam interruptions equal one count. Locomotor activity is recorded by computer at ten minute intervals for 60 minutes.
(§1) The data obtained from the screen test are expressed as percent of mice falling off the screen. Data derived from locomotor activity of drug treated mice are compared to the activity of vehicle treated animals and are expressed as percent inhibition of spontaneous locomotion. All percentages reported for inhibition of locomotion (LI) are based upon data accumulated for one hour. Both phases of testing are graded: A=60-100%; C=31-59%; and N=0-30%. An overall dose rating is obtained by the following criteria:
(§2) *This was done orally in rats, rather than IP in mice.

[2] = tested on: animals falling off the inverted screen; assay: Activity and Screen Test done orally in rats: screen test; format: in vivo
Procedure: A two part testing procedure is started one hour postinjection. First, the screen test (ST) is performed (see Pharmac. Biochem. Behav. 6, 351-353, 1977). Briefly this test consists of placing mice on individual wire screens which are then rotated 180 degrees at the start of a 60 second observation period. The number of mice falling off the inverted screen is recorded.
as §1, §2

[3] = target: T1, adenosine A1 receptor (Rattus norvegicus, UniProt P25099); assay: Adenosine Receptor Binding--A1 Receptor Affinity (RBA1), [3H]-CHA displacement; details: 1.0 nM [3H]-CHA, rat brain, 25° C, 1 h; read-out: RBA-1 (IC50, A1 receptor affinity)
T1 construct: Whole brain minus cerebellum and brainstem from male Long Evans rats; from tissue; host or cells: rat whole brain minus cerebellum and brainstem, membranes
T1 sequence (P25099 1-326): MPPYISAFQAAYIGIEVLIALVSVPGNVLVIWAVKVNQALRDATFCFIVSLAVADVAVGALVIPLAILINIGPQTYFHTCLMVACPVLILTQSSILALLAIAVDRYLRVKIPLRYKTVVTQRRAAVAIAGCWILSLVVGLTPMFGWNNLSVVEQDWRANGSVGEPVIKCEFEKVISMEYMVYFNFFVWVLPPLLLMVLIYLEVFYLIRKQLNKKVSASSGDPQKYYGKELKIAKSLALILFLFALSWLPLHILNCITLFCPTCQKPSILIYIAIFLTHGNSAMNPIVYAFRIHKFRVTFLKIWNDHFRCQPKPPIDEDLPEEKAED
Procedure: Adenosine Receptor Binding--A1 Receptor Affinity (RBA1)
Whole brain minus cerebellum and brainstem from male Long Evans rats (105-200 g) was homogenized in 30 volumes of ice-cold 0.05M Tris-HCl buffer pH 7.7 using a Brinkman Polytron PT-10, (setting number 6 for 20 seconds) and centrifuged for ten minutes at 20,000×g (Sorvall RC-2), 4° C. The supernatant was discarded, and the pellet was resuspended and centrifuged as before. The pellet was resuspended in 20 ml Tris-HCl buffer containing two International Units/ml of adenosine deaminase (Sigma type III from calf intestinal mucosa), incubated at 37° C. for 30 minutes, then subsequently at 0° C. for ten minutes. The homogenate was again centrifuged, and the final pellet was resuspended in ice-cold 0.05M Tris-HCl buffer pH 7.7 to a concentration of 20 mg/ml original wet tissue weight and used immediately.
Tissue homogenate (10 mg/ml) was incubated in 0.05M Tris-HCl buffer pH 7.7 containing 1.0 nM ((^3 H))-N^6 -cyclohexyladenosine ([^3 H]-CHA) with or without test agents in triplicate for one hour at 25° C. Incubation volume was 2 ml. Unbound [^3 H]-CHA was separated by rapid filtration under reduced pressure through Whatman glass fiber (GF/B) filters. The filters were rinsed three times with 5 ml of ice cold 0.05M Tris-HCl buffer pH 7.7. The radio-labeled ligand retained on the filter was measured by liquid scintillation spectrophotometry after shaking the filters for one hour or longer on a mechanical shaker in 10 ml of Beckman Ready-Solv HP scintillation cocktail.
Nonspecific binding was defined as the binding which occured in the presence of 1 mM theophylline. The concentration of test agent which inhibited 50% of the specific binding (IC50) was determined by nonlinear computer curve fit. The Scatchard plot was calculated by linear regression of the line obtained by plotting the amount of radioligand bound (pmoles/gram of tissue) versus [formula] Since the amount of radioligand bound was a small fraction of the total amount added, free radioligand was defined as the concentration of (nM) of radioligand added to the incubation mixture. The Hill coefficient was calculated by linear regression of the line obtained by plotting the log of the bound radioligand vs the log of the [formula] The maximal number of binding sites (Bmax) was calculated from the Scatchard plot.

[4] = target: T2, adenosine A2 receptor (Rattus norvegicus, UniProt P30543); assay: Adenosine Receptor Binding--A2 Receptor Affinity (RBA2), [3H]NECA displacement; format: rat (Sprague-Dawley striatal membranes); details: 4 nM [3H]NECA + 50 nM N6-cyclopentyladenosine, rat striatum, 25° C, 60 min; read-out: RBA-2 (IC50, A2 receptor affinity)
T2 construct: Brains were thawed and then kept on ice while the striata were dissected out; tissue Pel-Freez (Rogers, Arkansas) (rat brains); host or cells: rat striatum, membranes
Procedure: Adenosine Receptor Binding--A2 Receptor Affinity (RBA2)
Brains from 200-500 g mixed sex Sprague-Dawley rats were purchased from Pel-Freez (Rogers, Arkansas). Fresh brains from male Long-Evans hooded rats (Blue Spruce Farms, Altamont, NY) gave essentially identical results. Brains were thawed and then kept on ice while the striata were dissected out. Striata were disrupted in 10 vol of ice-cold 50 mM Tris.HCl (pH 7.7 at 25° C., pH 8.26 at 5° C.) (Tris) for 30 seconds in a Polytron PT-10 (Brinkmann) at setting 5. The suspension was centrifuged at 50,000×g for ten minutes, the supernatant discarded, the pellet resuspended in 10 vol ice-cold Tris as above, recentrifuged, resuspended at 1 g/5 ml, and stored in plastic vials at -70° C. (stable for at least six months). When needed, tissue was thawed at room temperature, disrupted in a Polytron, and kept on ice until used.
All incubations were for 60 minutes at 25° C. in 12×75 mm glass tubes containing 1 ml Tris with 5 mg original tissue weight of rat weight of rat striatal membranes, 4 nM [^3 H]-N-ethyl adenosine-5'-carboxamide ([^3 H]NECA), 50 nM N^6 -cyclopentyladenosine (to eliminate A1 receptor binding), 10 mM MgCl2, 0.1 units/ml of adenosine deaminase and 1% dimethylsulfoxide. N^6 -Cyclopentyladenosine was dissolved at 10 mM in 0.02N HCl and diluted in Tris. Stock solutions and dilutions of N^6 -cyclopentyladenosine could be stored at -20° C. for several months. Test compounds were dissolved at 10 mM in dimethylsulfoxide on the same day as the experiment, and diluted in dimethylsulfoxide to 100× the final incubation concentration. Control incubations received an equal volume (10 μl) of dimethylsulfoxide; the resulting concentration of dimethylsulfoxide had no effect on binding. [^3 H]NECA was diluted to 40 nM in Tris. The membrane suspension (5 mg/0.79 ml) contained sufficient MgCl2 and adenosine deaminase to give 10 mM and 0.1 units/ml, respectively, final concentration in the incubation. […] After all additions, the rack of tubes was vortexed, and the tubes were then incubated for 60 min at 25° C. in a shaking water bath. The rack of tubes was vortexed an additional time halfway through the incubation.
Incubations were terminated by filtration through 2.4 cm GF/B filters under reduced pressure. Each tube was filtered as follows: the contents of the tube were poured on the filter, 4 ml of ice-cold Tris were added to the tube and the contents poured onto the filter, and the filter was washed twice with 4 ml of ice-cold Tris. The filtration was complete in about twelve seconds. Filters were put in scintillation vials, 8 ml of Formula 947 scintillation fluid added, and the vials left overnight, shaken, and counted in a liquid scintillation counter at 40% efficiency.
Nonspecific binding was defined as binding in the presence of 100 μM N^6 -cyclopentyladenosine, and specific binding was defined as total binding minus nonspecific binding. The IC50 was calculated by weighted nonlinear least squares curve-fitting to the mass-action equation. [formula] where Y is cpm bound
T is cpm total binding without drug
S is cpm specific binding without drug
D is the concentration of drug and
K is the IC50 of the drug
Weighting factors were calculated under the assumption that the standard deviation was proportional to the predicted value of Y. Nonspecific binding was treated as a very large (infinite) concentration of drug in the computer analysis.

T2 sequence (P30543 whole entry): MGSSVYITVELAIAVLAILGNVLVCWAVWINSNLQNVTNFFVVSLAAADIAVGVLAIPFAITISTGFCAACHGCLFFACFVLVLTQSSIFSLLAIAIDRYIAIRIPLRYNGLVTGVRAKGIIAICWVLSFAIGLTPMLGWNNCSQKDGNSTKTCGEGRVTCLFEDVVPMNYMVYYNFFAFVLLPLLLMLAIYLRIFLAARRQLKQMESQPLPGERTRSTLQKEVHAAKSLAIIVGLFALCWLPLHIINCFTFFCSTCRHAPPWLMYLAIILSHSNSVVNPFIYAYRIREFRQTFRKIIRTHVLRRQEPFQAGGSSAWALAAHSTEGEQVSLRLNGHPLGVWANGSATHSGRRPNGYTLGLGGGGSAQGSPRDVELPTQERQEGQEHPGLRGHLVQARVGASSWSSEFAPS

| SMILES | Inhibition of locomotor activity ([1]; 0.1 mg/kg orally) | Inhibition of locomotor activity ([1]; 0.3 mg/kg orally) | Inhibition of locomotor activity ([1]; 1 mg/kg orally) | Screen test failure ([2]; 0.1 mg/kg orally) | Screen test failure ([2]; 0.3 mg/kg orally) | Screen test failure ([2]; 1 mg/kg orally) | IC50 [3] | IC50 [4] | Inhibition of locomotor activity ([1]; 3 mg/kg orally) | Inhibition of locomotor activity ([1]; 10 mg/kg orally) | Screen test failure ([2]; 3 mg/kg orally) | Screen test failure ([2]; 10 mg/kg orally) |
| --- | --- | --- | --- | --- | --- | --- | --- | --- | --- | --- | --- | --- |
| CCNC(=O)[C@H]1O[C@@H](n2cnc3c(NC4CC5CCC4C5)ncnc32)[C@H](O)[C@@H]1O (relative stereo) [Example 9, N-6-Norbornyladenosine-5'ethylcarboxamide] | 37% | 69% | 89% | 33% | 11% | 44% | – | – | – | – | – | – |
| CCNC(=O)[C@H]1O[C@@H](n2cnc3c(N[C@@H]4CCc5ccccc54)ncnc32)[C@H](O)[C@@H]1O [Example 2, (R)-N-6-(1-indanyl) adenosine-5'-ethylcarboxamide] | – | – | – | – | – | – | 0.029 µM | 0.161 µM | – | – | – | – |
| CCNC(=O)[C@H]1O[C@@H](n2cnc3c(NC4CCCC4)ncnc32)[C@H](O)[C@@H]1O [Example 4, N6-cyclopentyladenosine-5'-ethylcarboxamide] | 33% | 36% | 81% | 22% | 6% | 17% | 0.0009 µM | 0.198 µM | 84% | 84% | 22% | 72% |
| CCOC(=O)[C@H]1O[C@@H](n2cnc3c(N[C@H](C)Cc4ccccc4)ncnc32)[C@H](O)[C@@H]1O [Example 7, (R)-N-6-[(2-Phenyl-1-methyl)ethyl]-adenosine-5'-ethylcarboxylate] | – | – | – | – | – | – | 0.016 µM | 2.68 µM | – | – | – | – |
